Laboratory results from patent US20080004263A1, “Ligands of Follicle Stimulating Hormone Receptor and Methods of Use Thereof” (priority 2004, published 2008).

Target: T1, FSH receptor (Homo sapiens, UniProt P23945)
T1 construct: expressed in transfected cells; host or cells: AV12 cells (stably transfected)
T1 sequence (P23945 18-695): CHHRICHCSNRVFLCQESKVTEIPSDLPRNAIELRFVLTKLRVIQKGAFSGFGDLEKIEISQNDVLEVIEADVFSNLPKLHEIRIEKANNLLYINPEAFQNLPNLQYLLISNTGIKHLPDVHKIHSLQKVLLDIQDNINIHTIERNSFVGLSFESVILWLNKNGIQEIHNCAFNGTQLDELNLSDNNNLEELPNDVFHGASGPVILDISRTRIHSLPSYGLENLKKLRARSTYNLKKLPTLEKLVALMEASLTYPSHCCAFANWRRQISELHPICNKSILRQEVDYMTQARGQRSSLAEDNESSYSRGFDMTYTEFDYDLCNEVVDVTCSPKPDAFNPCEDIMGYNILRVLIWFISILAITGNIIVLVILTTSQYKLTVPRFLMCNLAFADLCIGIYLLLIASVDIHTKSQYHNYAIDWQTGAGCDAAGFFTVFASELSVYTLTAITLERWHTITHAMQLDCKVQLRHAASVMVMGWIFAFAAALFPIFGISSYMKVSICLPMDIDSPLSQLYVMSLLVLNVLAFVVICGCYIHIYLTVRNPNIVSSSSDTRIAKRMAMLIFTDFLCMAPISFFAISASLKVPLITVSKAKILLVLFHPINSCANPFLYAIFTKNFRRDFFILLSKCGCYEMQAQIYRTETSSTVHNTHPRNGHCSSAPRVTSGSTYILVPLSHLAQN
Test: cAMP Whole Cell assay (AlphaScreen cAMP detection) in AV12 cells stably transfected with FSH receptor
Format: cell-based
Details: AV12 cells expressing FSH receptor; average of two (2) trials
Experimental: Compounds of the invention were tested for their ability to activate an FSH receptor protein using an AlphaScreen cAMP detection kit (Perkin Elmer; Cat. No. 6760600R).
AV12 cells stably transfected with an expression vector containing an FSH construct and cultured under conditions permissive for cell surface expression of the encoded FSH receptor were harvested from flasks via non-enzymatic means. The cells were washed in PBS and resuspended in Stimulation Buffer. Live cells were counted using a hemacytometer and Trypan blue exclusion, and the cell concentration was adjusted to 2×10^5 cells/ml. A cAMP standard curve in buffer was prepared with a high final concentration of 1 μM, and serially diluted 1:5 in buffer (10 μL/well). Candidate compounds identified as per above (if frozen, thawed at room temperature) were added to their respective wells (in a 384-well plate) at increasing concentrations (5 μL/well; 10 μM final top assay concentration). To these wells, 2,000 cells in 10 μl of Buffer were added and the mixture as well as 5 μL of cAMP Acceptor Beads in Stimulation Buffer. Following a 30 minute incubation, 5 μL of Donor Bead/Biotinylated cAMP was added to each well, followed by incubation at RT for 2 hours. Plates were read in a Perkin Elmer AlphaQuest™ plate reader per manufacturer instructions.

EC50: 1.1 µM
Compound: Cc1onc(-c2cccc(-c3ccc(-c4nnn[nH]4)cc3)c2)c1-c1csc(C2CCN(C(=O)Cc3cccs3)CC2)n1 [Example 38, 1-[4-(4-{5-Methyl-3-[4′-(1H-tetrazol-5-yl)-biphenyl-3-yl]-isoxazol-4-yl}-thiazol-2-yl)-piperidin-1-yl]-2-thiophen-2-yl-ethanone]
